Results: US5760054A, “Alpha IC adrenergic receptor antagonists” (priority 1996, dated 1998)
Positions count from the first letter of the chain named. Read-outs that look alike come from different tables or passages of the source.

Columns and labels:
[1] = target: human alpha1A adrenergic receptor; assay: Selective binding assay, competition with [125I]-HEAT on COS-7 membranes, α1A; conditions: Table I, 100 pM [125I]-HEAT
Procedure: The resulting plasmid was transfected into COS-7 cells by electroporation.
(§1) Binding reactions (total volume=200 ul) contained 50 mM Tris-HCl pH. […] Reactions are incubated at room temperature for one hour with shaking. Reactions were filtered onto Whatman GF/C glass fiber filters with a Brandel cell harvester. Filters were washed three times with ice cold buffer and bound radioactivity was determined.
as §1, with “These competition binding” for “Binding”, “contain” for “contained”, “determined. Binding data were analyzed and IC50s determined by an iterative curve fitting program.” for “determined.”

[2] = target: T1, human alpha1C adrenergic receptor (Homo sapiens, UniProt P35348, C347R); assay: Selective binding assay, competition with [125I]-HEAT on COS-7 membranes, α1C; conditions: Table I, 100 pM [125I]-HEAT
T1 construct: expressed in transfected cells; host or cells: COS-7 cells (pcDNAI-neo, electroporation), membranes
T1 sequence (P35348 1-466 C347R): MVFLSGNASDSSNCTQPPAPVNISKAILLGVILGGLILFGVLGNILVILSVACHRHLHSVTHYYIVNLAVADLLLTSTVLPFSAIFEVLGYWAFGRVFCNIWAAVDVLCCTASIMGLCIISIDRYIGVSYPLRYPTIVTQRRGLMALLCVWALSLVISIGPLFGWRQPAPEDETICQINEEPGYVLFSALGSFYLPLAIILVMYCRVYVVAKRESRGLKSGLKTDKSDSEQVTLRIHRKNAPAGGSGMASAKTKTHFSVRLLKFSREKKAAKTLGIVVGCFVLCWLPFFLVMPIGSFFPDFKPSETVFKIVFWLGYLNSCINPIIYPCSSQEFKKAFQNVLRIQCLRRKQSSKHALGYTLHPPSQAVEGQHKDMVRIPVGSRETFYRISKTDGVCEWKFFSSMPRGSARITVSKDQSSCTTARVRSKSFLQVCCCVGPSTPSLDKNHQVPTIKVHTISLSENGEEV
Procedure: as §1, with “The resulting plasmid was transfected into COS-7 cells by electroporation. […] Binding” for “Binding”, “were” for “are”
as §1, with “These competition binding” for “Binding”, “contain” for “contained”, “determined. Binding data were analyzed and IC50s determined by an iterative curve fitting program.” for “determined.”
as §1, with “These competition binding” for “Binding”, “contain” for “contained”, “determined. Binding data were analyzed and IC50s determined by an iterative curve fitting program.” for “determined.”

[3] = target: human/rat alpha1B adrenergic receptor; assay: Selective binding assay, competition with [125I]-HEAT on COS-7 membranes, α1B; parameters: species or system human/rat hybrid
Procedure: The partial human alpha1B adrenergic receptor cDNA was joined to the 3' end of the rat alpha1B adrenergic receptor cDNA at their common BssHII restriction endonuclease site. ID:25:
as §1, with “The complete coding region for the human/rat alpha1B adrenergic receptor was subcloned into the eukaryotic expression vector pcDNAI-neo (Invitrogen). The resulting plasmid was transfected into COS-7 cells by electroporation. […] Binding” for “Binding”
as §1, with “These competition binding” for “Binding”, “contain” for “contained”, “determined. Binding data were analyzed and IC50s determined by an iterative curve fitting program.” for “determined.”

[4] = target: T2, human alpha-1c adrenergic receptor, allele 1 (LRR) (Homo sapiens, UniProt P35348, C347R); assay: biochemical
T2 sequence (P35348 1-466 C347R): T1 sequence (P35348 1-466 C347R)
Excerpt: (§2) To investigate the pharmacological profiles of the two allelic forms of the human alpha-1c adrenergic receptor we ligated the genomic exon 2 fragment of allele 2 to a cDNA clone of allele 1 at a common PvuII restriction site. The two allelic forms were transiently expressed in COS-7 cells using pcDNAI/NEO (Invitrogen) expression vector.

[5] = target: T3, human alpha-1c adrenergic receptor, allele 2 (LCR) (Homo sapiens, UniProt P35348); assay: biochemical
T3 sequence (P35348 1-466): T1 sequence (P35348 1-466 C347R) with R347C
Excerpt: as §2

[6] = Table I, 100 pM [125I]-HEAT, COS-7 membranes

Row | IC50 [1] [nM] | IC50 [2] [nM] | IC50 [3, 6] [nM] | Structure (SMILES) | also measured
1 | 42 | 3.5 | 270 | COc1ccccc1N1CCN(CCCNc2c(C)c(=O)n(C)c(=O)n2C)CC1 [5-methyl urapidil] | IC50 [4]: 3.1 nM; IC50 [5]: 4.3 nM
2 |  |  |  | COC(=O)C1=C(C)NC(C)=C(C(=O)OCCCN2CCC(c3ccccc3)(c3ccccc3)CC2)[C@H]1c1cccc([N+](=O)[O-])c1 [S(+) niguldipine] | IC50 [3]: 670 nM
3 | 1 | 1 | 16 | COc1cccc(OC)c1OCCNCC1COc2ccccc2O1 (centres unmarked) [WB4101] | IC50 [4]: 0.9 nM; IC50 ([5]; read-out: IC50 LCR, Table II, allele 2 (Cys at amino acid 347), COS-7, 125I-HEAT): 1 nM
4 | 2.5 | 1.5 | 68 | COc1cccc(OC)c1OCCNCC1CSc2ccccc2O1 (centres unmarked) [benoxathian] | 
5 |  |  | 2 | COc1cc2nc(N3CCN(C(=O)C4COc5ccccc5O4)CC3)nc(N)c2cc1OC (centres unmarked) [doxazosin] | 
6 |  |  |  | COc1cc2nc(N3CCN(C(=O)c4ccco4)CC3)nc(N)c2cc1OC [prazosin] | IC50 [3]: 2.4 nM
7 |  |  | 5 | COc1cc2nc(N3CCN(C(=O)C4CCCO4)CC3)nc(N)c2cc1OC (centres unmarked) [terazosin] | 

Row | Structure (SMILES) | IC50 [1] [nM] | IC50 [2] [nM] | IC50 [3, 6] [nM] | also measured
8 | CC(COc1ccccc1)N(CCCl)Cc1ccccc1 (centres unmarked) [phenoxybenzamine] | 6.1 |  | 4.3 | 
9 | Cc1ccc(N(CC2=NCCN2)c2cccc(O)c2)cc1 [phentolamine] |  |  | 650 | 
